In ChEMBL document CHEMBL4004803, “Syntheses and antibacterial activity of soluble 9-bromo substituted indolizinoquinoline-5,12-dione derivatives” (Eur J Med Chem, 2017):
Converted amounts (≈) assume the structure as drawn.

What was measured:
Staphylococcus aureus [1] = experiment: Antibacterial activity against methicillin-resistant Staphylococcus aureus 214026 clinical isolate after 20 to 24 hrs by two-fold microdilution method; type: functional
Staphylococcus aureus [2] = experiment: Antibacterial activity against methicillin-resistant Staphylococcus aureus 112106 clinical isolate after 20 to 24 hrs by two-fold microdilution method; type: functional
Staphylococcus aureus [3] = experiment: Antibacterial activity against methicillin-resistant Staphylococcus aureus 1012029 clinical isolate after 20 to 24 hrs by two-fold microdilution method; type: functional
Staphylococcus aureus [4] = experiment: Antibacterial activity against methicillin-resistant Staphylococcus aureus 221022 clinical isolate after 20 to 24 hrs by two-fold microdilution method; type: functional
Staphylococcus aureus [5] = experiment: Antibacterial activity against methicillin-resistant Staphylococcus aureus 110325 clinical isolate after 20 to 24 hrs by two-fold microdilution method; type: functional
Staphylococcus aureus [6] = experiment: Antibacterial activity against methicillin-resistant Staphylococcus aureus 831024 clinical isolate after 20 to 24 hrs by two-fold microdilution method; type: functional
Staphylococcus aureus [7] = experiment: Antibacterial activity against methicillin-resistant Staphylococcus aureus 1215028 clinical isolate after 20 to 24 hrs by two-fold microdilution method; type: functional
Streptococcus pneumoniae = experiment: Antibacterial activity against Streptococcus pneumoniae ATCC 6305 after 20 to 24 hrs by two-fold microdilution method; type: functional
Staphylococcus aureus [8] = experiment: Antibacterial activity against methicillin-resistant Staphylococcus aureus 519238 clinical isolate after 20 to 24 hrs by two-fold microdilution method; type: functional
[9] = Solubility of the compound in water at 25 degC measured after shaking for 4 hrs by UV method; type: physicochemical; conditions: buffer, 4 h
Staphylococcus aureus [10] = experiment: Antibacterial activity against methicillin-resistant Staphylococcus aureus 10281-2 clinical isolate after 20 to 24 hrs by two-fold microdilution method; type: functional
Staphylococcus aureus [11] = experiment: Antibacterial activity against methicillin-resistant Staphylococcus aureus clinical isolate after 20 to 24 hrs by two-fold microdilution method; type: functional
Staphylococcus aureus [12] = experiment: Antibacterial activity against methicillin-resistant Staphylococcus aureus 109016 clinical isolate after 20 to 24 hrs by two-fold microdilution method; type: functional
Staphylococcus aureus [13] = experiment: Antibacterial activity against methicillin-resistant Staphylococcus aureus 215073 clinical isolate after 20 to 24 hrs by two-fold microdilution method; type: functional
Staphylococcus aureus [14] = experiment: Antibacterial activity against methicillin-resistant Staphylococcus aureus 110432 clinical isolate after 20 to 24 hrs by two-fold microdilution method; type: functional
Staphylococcus aureus [15] = experiment: Antibacterial activity against methicillin-resistant Staphylococcus aureus 110328-1 clinical isolate after 20 to 24 hrs by two-fold microdilution method; type: functional
Staphylococcus aureus [16] = experiment: Antibacterial activity against methicillin-resistant Staphylococcus aureus 110414 clinical isolate after 20 to 24 hrs by two-fold microdilution method; type: functional
Staphylococcus aureus [17] = experiment: Antibacterial activity against methicillin-resistant Staphylococcus aureus 3250299 clinical isolate after 20 to 24 hrs by two-fold microdilution method; type: functional
Staphylococcus aureus [18] = experiment: Antibacterial activity against methicillin-resistant Staphylococcus aureus 112430 clinical isolate after 20 to 24 hrs by two-fold microdilution method; type: functional
Streptococcus pyogenes = experiment: Antibacterial activity against Streptococcus pyogenes ATCC 19615 after 20 to 24 hrs by two-fold microdilution method; type: functional
Staphylococcus aureus [19] = experiment: Antibacterial activity against methicillin-resistant Staphylococcus aureus 504008 clinical isolate after 20 to 24 hrs by two-fold microdilution method; type: functional
Staphylococcus aureus [20] = experiment: Antibacterial activity against methicillin-resistant Staphylococcus aureus 20339 clinical isolate after 20 to 24 hrs by two-fold microdilution method; type: functional
Staphylococcus aureus [21] = experiment: Antibacterial activity against methicillin-resistant Staphylococcus aureus 11703 clinical isolate after 20 to 24 hrs by two-fold microdilution method; type: functional
Staphylococcus aureus [22] = experiment: Antibacterial activity against methicillin-resistant Staphylococcus aureus 19950 clinical isolate after 20 to 24 hrs by two-fold microdilution method; type: functional
Staphylococcus aureus [23] = experiment: Antibacterial activity against methicillin-resistant Staphylococcus aureus 1024010 clinical isolate after 20 to 24 hrs by two-fold microdilution method; type: functional
Staphylococcus aureus [24] = experiment: Antibacterial activity against methicillin-resistant Staphylococcus aureus 502025 clinical isolate after 20 to 24 hrs by two-fold microdilution method; type: functional
Staphylococcus aureus [25] = experiment: Antibacterial activity against methicillin-resistant Staphylococcus aureus 531220 clinical isolate after 20 to 24 hrs by two-fold microdilution method; type: functional
Staphylococcus aureus [26] = experiment: Antibacterial activity against methicillin-resistant Staphylococcus aureus 121969 clinical isolate after 20 to 24 hrs by two-fold microdilution method; type: functional
Staphylococcus aureus [27] = experiment: Antibacterial activity against methicillin-resistant Staphylococcus aureus 523005 clinical isolate after 20 to 24 hrs by two-fold microdilution method; type: functional
Staphylococcus aureus [28] = experiment: Antibacterial activity against methicillin-resistant Staphylococcus aureus 216054 clinical isolate after 20 to 24 hrs by two-fold microdilution method; type: functional
Staphylococcus aureus [29] = experiment: Antibacterial activity against methicillin-resistant Staphylococcus aureus 822030 clinical isolate after 20 to 24 hrs by two-fold microdilution method; type: functional
Staphylococcus aureus [30] = experiment: Antibacterial activity against methicillin-resistant Staphylococcus aureus 111625 clinical isolate after 20 to 24 hrs by two-fold microdilution method; type: functional
Staphylococcus aureus [31] = experiment: Antibacterial activity against methicillin-resistant Staphylococcus aureus 530231 clinical isolate after 20 to 24 hrs by two-fold microdilution method; type: functional
Staphylococcus aureus [32] = experiment: Antibacterial activity against methicillin-resistant Staphylococcus aureus 102849 clinical isolate after 20 to 24 hrs by two-fold microdilution method; type: functional
Staphylococcus aureus [33] = experiment: Antibacterial activity against methicillin-resistant Staphylococcus aureus 919205 clinical isolate after 20 to 24 hrs by two-fold microdilution method; type: functional
Staphylococcus aureus [34] = experiment: Antibacterial activity against methicillin-resistant Staphylococcus aureus 1113041 clinical isolate after 20 to 24 hrs by two-fold microdilution method; type: functional
Staphylococcus aureus [35] = experiment: Antibacterial activity against methicillin-resistant Staphylococcus aureus 1101016 clinical isolate after 20 to 24 hrs by two-fold microdilution method; type: functional
Staphylococcus aureus [36] = experiment: Antibacterial activity against methicillin-resistant Staphylococcus aureus 414244 clinical isolate after 20 to 24 hrs by two-fold microdilution method; type: functional
Enterococcus faecalis = experiment: Antibacterial activity against Enterococcus faecalis ATCC 29212 after 20 to 24 hrs by two-fold microdilution method; type: functional
Staphylococcus aureus [37] = experiment: Antibacterial activity against methicillin-resistant Staphylococcus aureus 109244 clinical isolate after 20 to 24 hrs by two-fold microdilution method; type: functional
Staphylococcus aureus [38] = experiment: Antibacterial activity against methicillin-resistant Staphylococcus aureus 30116-1 clinical isolate after 20 to 24 hrs by two-fold microdilution method; type: functional
Staphylococcus aureus [39] = experiment: Antibacterial activity against methicillin-resistant Staphylococcus aureus 110910-2 clinical isolate after 20 to 24 hrs by two-fold microdilution method; type: functional
Staphylococcus aureus [40] = experiment: Antibacterial activity against methicillin-resistant Staphylococcus aureus 1106003 clinical isolate after 20 to 24 hrs by two-fold microdilution method; type: functional
Staphylococcus aureus [41] = experiment: Antibacterial activity against methicillin-resistant Staphylococcus aureus 921026 clinical isolate after 20 to 24 hrs by two-fold microdilution method; type: functional
Staphylococcus aureus [42] = experiment: Antibacterial activity against methicillin-resistant Staphylococcus aureus 20106-2 clinical isolate after 20 to 24 hrs by two-fold microdilution method; type: functional
Staphylococcus aureus [43] = experiment: Antibacterial activity against methicillin-resistant Staphylococcus aureus 131215 clinical isolate after 20 to 24 hrs by two-fold microdilution method; type: functional
Staphylococcus aureus [44] = experiment: Antibacterial activity against methicillin-resistant Staphylococcus aureus 121026 clinical isolate after 20 to 24 hrs by two-fold microdilution method; type: functional

CN(C)CCCCCOC(=O)c1c2c(n3cc(Br)ccc13)C(=O)c1ncccc1C2=O
MIC (Staphylococcus aureus [1]): 0.125 µg/mL (≈ 0.258 µM) | MIC (Staphylococcus aureus [2]): 0.25 µg/mL (≈ 0.516 µM) | MIC (Staphylococcus aureus [3]): 0.25 µg/mL (≈ 0.516 µM) | MIC (Staphylococcus aureus [4]): 0.5 µg/mL (≈ 1.03 µM) | MIC (Staphylococcus aureus [5]): 0.125 µg/mL (≈ 0.258 µM) | MIC (Staphylococcus aureus [6]): 0.125 µg/mL (≈ 0.258 µM) | MIC (Staphylococcus aureus [7]): 0.125 µg/mL (≈ 0.258 µM) | MIC (Streptococcus pneumoniae): 0.5 µg/mL (≈ 1.03 µM) | MIC (Staphylococcus aureus [8]): 1 µg/mL (≈ 2.06 µM) | solubility [9]: Insoluble | MIC (Staphylococcus aureus [10]): 0.25 µg/mL (≈ 0.516 µM) | MIC50 (Staphylococcus aureus [11]): 0.25 µg/mL (≈ 0.516 µM) | MIC90 (Staphylococcus aureus [11]): 0.5 µg/mL (≈ 1.03 µM) | MIC (Staphylococcus aureus [12]): 0.25 µg/mL (≈ 0.516 µM) | MIC (Staphylococcus aureus [13]): 0.5 µg/mL (≈ 1.03 µM) | MIC (Staphylococcus aureus [14]): 0.5 µg/mL (≈ 1.03 µM) | MIC (Staphylococcus aureus [15]): 0.063 µg/mL (≈ 0.13 µM) | MIC (Staphylococcus aureus [16]): 0.5 µg/mL (≈ 1.03 µM) | MIC (Staphylococcus aureus [17]): 0.25 µg/mL (≈ 0.516 µM) | MIC (Staphylococcus aureus [18]): 0.5 µg/mL (≈ 1.03 µM) | MIC (Streptococcus pyogenes): 2 µg/mL (≈ 4.13 µM) | MIC (Staphylococcus aureus [19]): 0.5 µg/mL (≈ 1.03 µM) | MIC (Staphylococcus aureus [20]): 0.5 µg/mL (≈ 1.03 µM) | MIC (Staphylococcus aureus [21]): 0.5 µg/mL (≈ 1.03 µM) | MIC (Staphylococcus aureus [22]): 0.5 µg/mL (≈ 1.03 µM) | MIC (Staphylococcus aureus [23]): 0.25 µg/mL (≈ 0.516 µM) | MIC (Staphylococcus aureus [24]): 0.5 µg/mL (≈ 1.03 µM) | MIC (Staphylococcus aureus [25]): 0.25 µg/mL (≈ 0.516 µM) | MIC (Staphylococcus aureus [26]): 0.25 µg/mL (≈ 0.516 µM) | MIC (Staphylococcus aureus [27]): 0.5 µg/mL (≈ 1.03 µM) | MIC (Staphylococcus aureus [28]): 0.25 µg/mL (≈ 0.516 µM) | MIC (Staphylococcus aureus [29]): 0.5 µg/mL (≈ 1.03 µM) | MIC (Staphylococcus aureus [30]): 0.25 µg/mL (≈ 0.516 µM) | MIC (Staphylococcus aureus [31]): 0.25 µg/mL (≈ 0.516 µM) | MIC (Staphylococcus aureus [32]): 0.25 µg/mL (≈ 0.516 µM) | MIC (Staphylococcus aureus [33]): 0.125 µg/mL (≈ 0.258 µM) | MIC (Staphylococcus aureus [34]): 0.5 µg/mL (≈ 1.03 µM) | MIC (Staphylococcus aureus [35]): 0.25 µg/mL (≈ 0.516 µM) | MIC (Staphylococcus aureus [36]): 0.5 µg/mL (≈ 1.03 µM) | MIC (Enterococcus faecalis): 0.125 µg/mL (≈ 0.258 µM) | MIC (Staphylococcus aureus [37]): 0.5 µg/mL (≈ 1.03 µM) | MIC (Staphylococcus aureus [38]): 0.5 µg/mL (≈ 1.03 µM) | MIC (Staphylococcus aureus [39]): 0.5 µg/mL (≈ 1.03 µM) | MIC (Staphylococcus aureus [40]): 16 µg/mL (≈ 33 µM) | MIC (Staphylococcus aureus [41]): 0.25 µg/mL (≈ 0.516 µM) | MIC (Staphylococcus aureus [42]): 1 µg/mL (≈ 2.06 µM) | MIC (Staphylococcus aureus [43]): 0.25 µg/mL (≈ 0.516 µM) | MIC (Staphylococcus aureus [44]): 0.125 µg/mL (≈ 0.258 µM)
